Experimental data taken from patent publication US6780853B1, “Neuroactive steroids of the androstane and pregnane series” (priority 1995, dated 2004).
Marks after values point to notes of the source that are not given here.

Assays:
Estrogen Receptors = target: T1, Estrogen Receptors (Bos taurus, UniProt P49884); experiment: Inhibition of 3H-Estradiol Binding to Bovine Uteral Estrogen Receptors; conditions: competitor 10^−6M; 3H-estradiol 0.15 nM
T1 construct: from tissue; host or cells: bovine uterus cytosol
T1 sequence (P49884 1-596): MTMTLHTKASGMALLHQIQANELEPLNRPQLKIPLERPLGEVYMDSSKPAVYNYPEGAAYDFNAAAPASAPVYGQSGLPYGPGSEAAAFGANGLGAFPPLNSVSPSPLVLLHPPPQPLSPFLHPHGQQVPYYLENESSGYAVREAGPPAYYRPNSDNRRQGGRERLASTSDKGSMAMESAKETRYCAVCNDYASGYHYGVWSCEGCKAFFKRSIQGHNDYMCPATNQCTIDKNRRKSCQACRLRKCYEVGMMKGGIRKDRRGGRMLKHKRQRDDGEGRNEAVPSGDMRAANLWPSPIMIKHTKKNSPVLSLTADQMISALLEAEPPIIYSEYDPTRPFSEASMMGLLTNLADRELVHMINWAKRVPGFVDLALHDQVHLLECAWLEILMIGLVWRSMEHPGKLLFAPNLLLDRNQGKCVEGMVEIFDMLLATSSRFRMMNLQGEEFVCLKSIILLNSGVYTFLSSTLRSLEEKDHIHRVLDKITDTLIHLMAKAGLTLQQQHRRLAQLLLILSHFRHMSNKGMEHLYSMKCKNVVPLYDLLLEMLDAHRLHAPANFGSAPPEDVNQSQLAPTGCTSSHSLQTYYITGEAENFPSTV
Procedure: (§1) Various hormonal activities of representative neuroactive steroids were further studied through testing their potential estrogenic, mineralocorticoid and glucocorticoid activities. These activities were analyzed by monitoring the ability of the compounds to inhibit binding of the steroid hormones to their respective hormone receptors.

[1] = target: T2, Mineralocorticoid Receptors (Rattus norvegicus, UniProt P22199); experiment: Inhibition of 3H-Aldosterone Binding to Hippocampal Mineralocorticoid Receptors; conditions: competitor 10^−6M; 3 nM 3H-aldosterone, RU28362 0.5 μM
T2 construct: To isolate the mineralocorticoid receptor, brain cytosol fractions were prepared; from tissue; host or cells: brain (hippocampal) cytosol of adrenalectomized rats
T2 sequence (P22199 1-981): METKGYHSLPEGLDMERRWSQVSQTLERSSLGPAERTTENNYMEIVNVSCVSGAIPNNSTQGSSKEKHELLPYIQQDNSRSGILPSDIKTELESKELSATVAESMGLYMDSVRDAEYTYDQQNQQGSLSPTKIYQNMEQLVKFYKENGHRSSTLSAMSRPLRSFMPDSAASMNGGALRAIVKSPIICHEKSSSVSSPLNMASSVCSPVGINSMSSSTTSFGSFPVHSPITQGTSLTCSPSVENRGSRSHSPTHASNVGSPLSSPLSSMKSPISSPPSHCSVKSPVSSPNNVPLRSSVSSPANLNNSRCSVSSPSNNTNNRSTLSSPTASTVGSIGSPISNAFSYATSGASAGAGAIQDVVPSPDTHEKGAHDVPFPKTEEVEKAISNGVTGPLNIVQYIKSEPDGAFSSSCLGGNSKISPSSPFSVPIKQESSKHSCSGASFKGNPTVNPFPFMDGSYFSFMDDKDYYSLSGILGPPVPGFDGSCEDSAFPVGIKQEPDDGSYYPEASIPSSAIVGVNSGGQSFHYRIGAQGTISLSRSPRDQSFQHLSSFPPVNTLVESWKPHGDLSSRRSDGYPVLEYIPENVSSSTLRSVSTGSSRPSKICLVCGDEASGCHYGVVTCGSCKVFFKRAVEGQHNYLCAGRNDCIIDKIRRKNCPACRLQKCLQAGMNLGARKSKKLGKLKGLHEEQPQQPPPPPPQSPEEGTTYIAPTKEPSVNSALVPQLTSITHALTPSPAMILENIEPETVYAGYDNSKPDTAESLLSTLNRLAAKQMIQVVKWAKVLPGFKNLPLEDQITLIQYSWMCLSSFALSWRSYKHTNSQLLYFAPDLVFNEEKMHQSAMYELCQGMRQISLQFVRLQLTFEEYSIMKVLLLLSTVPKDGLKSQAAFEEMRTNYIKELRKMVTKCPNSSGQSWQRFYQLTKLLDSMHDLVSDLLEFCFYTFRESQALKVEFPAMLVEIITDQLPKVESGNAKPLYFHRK
Procedure: as §1
In Table 4, rats were adrenalectornized 3 days prior to sacrifice.

Progesterone Receptors = experiment: Inhibition of 3H-Progesterone Binding to the Bovine Uteral Progesterone Receptors; conditions: competitor 10^−6M; 3H-progesterone 0.15 nM
[2] = target: GABA receptor complex (GRC); experiment: [35S]TBPS binding in rat cerebral cortex P2 homogenate; conditions: for IC50: concentration to inhibit 50% of control [35S]TBPS binding, 2 nM [35S]TBPS; for IMAX (maximum inhibition): maximum inhibition of [35S]TBPS binding
In short: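 Male Sprague-Dawley rat cortical P2 homogenate (0.5 mg protein) incubated with 2 nM [35S]TBPS in 50 mM Na/K phosphate pH 7.4, 200 mM NaCl, with GABA plus (+)bicuculline, 90 min at 25 °C. Filter-bound radioactivity counted; non-specific binding with […]; IC50 and maximal inhibition by nonlinear regression.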

loss-of-righting reflex = experiment: Anesthetic activity, loss-of-righting reflex; format: in vivo, mice; conditions: iv
Procedure: The compounds of and used in the invention can also be used for anesthetic indications at high doses. However, the preferred route of administration to induce anesthesia is intravenous (i.v.) administration. In animals, a drug's anesthetic properties is measured by the drug's ability to produce a loss-of-righting reflex. The loss-of-righting reflex is defined as the inability of an animal to right itself within 30 seconds when placed on its back. Mice were administered drug i.v. in the lateral tail vein. Following administration, mice were placed on their backs and observed for loss-of-righting reflex.

[3] = test system: metrazol induced convulsions; experiment: Antimetrazol activity in mice; format: in vivo; conditions: 50% hpbcd, 10 mg/kg; for % Protected: IP, 10 min before metrazol 85 mg/kg; for PTZ % Protected: i.p., 10 min
Procedure: Experiments were also performed to determine the physiological relevance of neuroactive steroid and GABA receptor interactions by assessing the ability of compounds of the present invention to prevent metrazol induced convulsions in mice. Mice were injected with various doses of the test compounds of the invention, 10 minutes prior to the injection of metrazol. The time to onset of myoclonus (presence of forelimb clonic activity) induced by metrazol was determined by observing each mouse for a period of 30 minutes. In control mice, metrazol (85 mg/kg) will induce convulsion in 95% of the animals.
(§2) The anticonvulsant tests are similar to that described above.

[4] = test system: maximal electroshock tonic seizure; experiment: Maximal electroshock test; format: in vivo, mice; conditions: 20 mg/kg, i.p., 10 min, 50% hpbcd
Text: as §2

[5] = test system: time spent on the open-arms; experiment: Elevated plus-maze test; format: in vivo, N.I.H. Swiss-Webster mice; conditions: IP, 50% hpbcd, 10 mg/kg
Text: The theoretical basis for the elevated plus-maze test is similar to that of the fight/dark transition test. As it was described previously by Pellow et al. J. Neurosci. Meth. 14:149-167 (1985)), the elevated plus-maze apparatus is designed to utilize the mice's natural aversion to open spaces. The apparatus consists of two open-arms and two enclosed-arms. The elevated plus-maze test allows for two measures of anxiety, the number of entries into the open-arms and the time spent on the open-arms, both expressed as a percentage of the total number of entries and time spent in/on both the open-arms and enclosed-arms.
Male N.I.H Swiss-Webster mice (Harlan, Indianapolis, Ind.) weighing 15-20 g were housed four per cage in polyethylene cages with sawdust bedding. The colony room was environmentally controlled (22° C.) with a 12 hr light/dark cycle (0600-1800 hr). Food and water were available ad libitum, except during testing. The experiments were run from 0700-1500 hr and groups were counterbalanced for time of day effects. Mice were only administered drug or vehicle once.
The method used was previously described (Lister, Psychopharmacol. 92:180-185 (1987)). The apparatus included two open arms perpendicular to two enclosed arms elevated 50 cm from the floor. Each arm was 50 cm long and the walls of the enclosed arms were 40 cm tall. The maze was made completely of black plexiglass. Incandescent 200 W light bulbs were above each of the open arms to produce a strong contrast between the open arms and the enclosed arms.
[…] Swiss-Webster mice were placed in the center of the plus-maze facing an open arm. During the 5 min test period, the number of entries onto the open arms and the enclosed arms, and the time spent in the open arms and enclosed arms were measured. All four paws had to be within an arm for the dependent variable to be measured. Therefore, the time spent in the center of the maze is not counted, so the total time spent in the open arms and the enclosed arms may not equal 5 min.

| Molecule | % of Inhibition (Progesterone Receptors) [%] | IC50 [2] [nM] | IMAX (maximum inhibition) [2] [%] | Loss-of-Righting Reflex (%) (loss-of-righting reflex; 50% hpbcd, 10 mg/kg) | % Protected [3] [%] | Plus-Maze (% Control), time spent on the open-arms [5] [% Control] | melting point [°C] | other results |
| --- | --- | --- | --- | --- | --- | --- | --- | --- |
| 5α-pregnan-3β,20-trimethyl-3α,20-diol | 8 |  |  |  |  |  |  | % of Inhibition (Estrogen Receptors): 0%; % of Inhibition [1]: 0% |
| C[C@]12CC[C@@H](O)C[C@@H]1CC[C@@H]1[C@@H]2CC[C@]2(C)[C@@H](C(=O)CO)CC[C@@H]12 [3α,21-Dihydroxy-5α-pregnan-20-one, reference compound] | 13 | 76 | 100 |  |  |  |  |  |
| CC(=O)[C@H]1CC[C@H]2[C@@H]3CC[C@H]4C[C@H](O)CC[C@]4(C)[C@H]3C(=O)C[C@]12C [3α-Hydroxy-5α-pregnan-11,20-dione, reference compound] |  |  |  | 37.5 |  |  |  |  |
| CC(=O)[C@H]1CC[C@H]2[C@@H]3CC[C@H]4C[C@H](O)CC[C@]4(C)[C@H]3CC[C@]12C [3α-Hydroxy-5α-pregnan-20-one, reference compound] | 14 | 37 | 95 |  |  |  |  |  |
| C=C(C)C#CC1(O)CCC2(C)C(CCC3C2CCC2(C)C(OC)CCC32)C1 (stereo not drawn) [3α-Hydroxy-17β-methoxy-3β-(3′-methylbut-3′-en-1′-ynyl)-5β-androstane] |  |  |  | 100 | 87.5 |  |  |  |
| COCC1(O)CCC2(C)C(CCC3C2CCC2(C)C(OC)CCC32)C1 (stereo not drawn) [3α-Hydroxy-17β-methoxy-3β-methoxymethyl-5α-androstane] |  | 64 | 100 |  | 87.5 | 130 |  | MES % Protected [4]: 18.7^b %; PTZ % Protected [3]: 87.5^c %; Loss-of-Righting Reflex (%) (loss-of-righting reflex; 10% hpbcd, 10 mg/kg): 50% |
| COC1CCC2C3CCC4CC(O)(C(F)(F)F)CCC4(C)C3CCC12C (stereo not drawn) [3α-Hydroxy-17β-methoxy-3β-trifluoromethyl-5β-androstane] [3β-trifluoromethyl-3α-hydroxy-17β-methoxy-5β-androstane] |  | 216 | 103 |  | 37.5 | 115 | 122 to 127 | Loss-of-Righting Reflex (%) (loss-of-righting reflex; 10% hpbcd, 20 mg/kg): 37.5% |
| COC1CCC2C3CCC4CC(O)(C(F)(F)F)CCC4C3CCC12C (stereo not drawn) [3α-Hydroxy-17β-methoxy-3β-trifluoromethyl-19-nor-5β-androstane] |  | 93 | 115 | 62.5 |  | 107 | 40 to 42 |  |
| CO[C@H]1CC[C@H]2[C@@H]3CC[C@@H]4C[C@H](O)CC[C@]4(C)[C@H]3CC[C@]12C [3α-Hydroxy-17β-methoxy-5β-androstane] |  | 62 | 106 |  |  | 115 | 151 to 156 | MES % Protected [4]: 87.5^b %; PTZ % Protected [3]: 87.5^c % |
| COC1CCC2C3CCC4CC(O)(C#Cc5ccc(C(C)=O)cc5)CCC4C3CCC12C (stereo not drawn) [3β-(4′-Acetylphenylethynyl)-3α-hydroxy-17β-methoxy-19-nor-5β-androstane] |  | 8 | 96 |  | 31 | 156 | 148 to 150 | MES % Protected [4]: 25^b %; PTZ % Protected [3]: 12.5^c % |
| C#CC1(O)CCC2C(CCC3C2CCC2(C)C(OC)CCC32)C1 (stereo not drawn) [3β-Ethynyl-3α-hydroxy-17β-methoxy-19-nor-5β-androstane] |  | 56 | 107 | 100 |  | 158 | 152 to 154 |  |
| C[C@H](O)[C@H]1CC[C@H]2[C@@H]3CC[C@H]4C[C@H](O)CC[C@]4(C)[C@H]3CC[C@]12C [5α-pregnan-3α,20-diol, 5α-pregnan-3α,20α-diol] | 6 |  |  |  |  |  |  | % of Inhibition (Estrogen Receptors): 0%; % of Inhibition [1]: 0% |
| CC(O)C1CCC2C3CCC4CC(O)CCC4(C)C3CCC12C (stereo not drawn) [5β-pregnan-3α,20α-diol] | 0 |  |  |  |  |  |  | % of Inhibition (Estrogen Receptors): 8%; % of Inhibition [1]: 0% |
